One assay concerns the target T1, hM4 muscarinic receptor (Homo sapiens, UniProt P08173).
T1 construct: expressed in transfected cells; host or cells: CHO
T1 sequence (P08173 1-479): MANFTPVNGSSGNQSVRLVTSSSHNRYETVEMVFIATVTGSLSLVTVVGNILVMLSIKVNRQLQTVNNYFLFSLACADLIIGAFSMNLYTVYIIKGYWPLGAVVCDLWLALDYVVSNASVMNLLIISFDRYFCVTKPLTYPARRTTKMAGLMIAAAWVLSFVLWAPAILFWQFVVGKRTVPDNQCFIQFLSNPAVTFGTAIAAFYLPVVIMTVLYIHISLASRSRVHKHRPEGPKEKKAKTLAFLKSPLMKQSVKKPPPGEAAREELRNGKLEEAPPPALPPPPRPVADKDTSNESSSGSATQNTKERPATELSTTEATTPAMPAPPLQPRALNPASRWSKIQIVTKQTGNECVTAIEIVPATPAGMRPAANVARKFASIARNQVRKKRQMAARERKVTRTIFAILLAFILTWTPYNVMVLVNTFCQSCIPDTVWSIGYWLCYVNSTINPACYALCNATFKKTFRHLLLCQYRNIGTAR
The assay can be described thus: Radioligand binding assay for muscarinic receptors ([3H]-NMS displacement). As to conditions: M4 muscarinic receptor subtype, CHO cell membranes, [3H]-NMS 1 nM. How it is done: (§1) CHO cell lines stably expressing cloned human hM1, hM2, hM3 and hM4 muscarinic receptor subtypes, respectively, were grown to near confluency in Hams F-12 media supplemented with 10% FBS and 250 μg/mL Geneticin. The cells were grown in a 5% CO2, 37° C. incubator and lifted with 2 mM EDTA in dPBS. Cells were collected by 5 minute centrifugation at 650×g, and cell pellets were either stored frozen at −80° C. or membranes were prepared immediately for use. For membrane preparation, cell pellets were resuspended in lysis buffer and homogenized with a Polytron PT-2100 tissue disrupter (Kinematica AG; 20 seconds×2 bursts). Crude membranes were centrifuged at 40,000×g for 15 minutes at 4° C. The membrane pellet was then resuspended with re-suspension buffer and homogenized again with the Polytron tissue disrupter. The protein concentration of the membrane suspension was determined by the method described in Lowry et al., 1951, Journal of Biochemistry, 193, 265. All membranes were stored frozen in aliquots at −80° C. or used immediately. Aliquots of prepared hM5 receptor membranes were purchased directly from PerkinElmer, Inc. (Wellesley, Mass.) and stored at −80° C. until use.
(§2) Radioligand binding assays for cloned muscarinic receptors were performed in 96-well microtiter plates in a total assay volume of 100 μL. CHO cell membranes stably expressing either the hM1, hM2, hM3, hM4 or hM5 muscarinic subtype were diluted in assay buffer to the following specific target protein concentrations (μg/well): 10 μg for hM1, 10-15 μg for hM2, 10-20 μg for hM3, 10-20 μg for hM4, and 10-12 μg for hM5 to get similar signals (cpm). The membranes were briefly homogenized using a Polytron tissue disrupter (10 seconds) prior to assay plate addition. Saturation binding studies for determining KD values of the radioligand were performed using L-[N-methyl-^3H]scopolamine methyl chloride ([^3H]-NMS) (TRK666, 84.0 Ci/mmol, Amersham Pharmacia Biotech, Buckinghamshire, England) at concentrations ranging from 0.001 nM to 20 nM. Displacement assays for determination of Ki values of test compounds were performed with [^3H]-NMS at 1 nM and eleven different test compound concentrations. The test compounds were initially dissolved to a concentration of 400 μM in dilution buffer and then serially diluted 5× with dilution buffer to final concentrations ranging from 10 pM to 100 μM. The addition order and volumes to the assay plates were as follows: 25 μL radioligand, 25 μL diluted test compound, and 50 μL membranes. Assay plates were incubated for 60 minutes at 37° C. Binding reactions were terminated by rapid filtration over GF/B glass fiber filter plates (PerkinElmer, Inc.) pre-treated in 1% BSA. Filter plates were rinsed three times with wash buffer (10 mM HEPES) to remove unbound radioactivity. The plates were then air-dried and 50 μL Microscint-20 liquid scintillation fluid (PerkinElmer, Inc.) were added to each well. The plates were then counted in a PerkinElmer Topcount liquid scintillation counter (PerkinElmer, Inc.). Binding data were analyzed by nonlinear regression analysis with the GraphPad Prism Software package (GraphPad Software, Inc., San Diego, Calif.) using the one-site competition model. Ki values for test compounds were calculated from observed IC50 values and the KD value of the radioligand using the Cheng-Prusoff equation (Cheng Y; Prusoff W H. (1973) Biochemical Pharmacology, 22(23):3099-108). […]

A further assay addresses T2, hM5 muscarinic receptor (Homo sapiens, UniProt P08912).
T2 construct: purchased PerkinElmer, Inc. (Wellesley, Mass.); host or cells: CHO cell membranes
T2 sequence (P08912 1-532): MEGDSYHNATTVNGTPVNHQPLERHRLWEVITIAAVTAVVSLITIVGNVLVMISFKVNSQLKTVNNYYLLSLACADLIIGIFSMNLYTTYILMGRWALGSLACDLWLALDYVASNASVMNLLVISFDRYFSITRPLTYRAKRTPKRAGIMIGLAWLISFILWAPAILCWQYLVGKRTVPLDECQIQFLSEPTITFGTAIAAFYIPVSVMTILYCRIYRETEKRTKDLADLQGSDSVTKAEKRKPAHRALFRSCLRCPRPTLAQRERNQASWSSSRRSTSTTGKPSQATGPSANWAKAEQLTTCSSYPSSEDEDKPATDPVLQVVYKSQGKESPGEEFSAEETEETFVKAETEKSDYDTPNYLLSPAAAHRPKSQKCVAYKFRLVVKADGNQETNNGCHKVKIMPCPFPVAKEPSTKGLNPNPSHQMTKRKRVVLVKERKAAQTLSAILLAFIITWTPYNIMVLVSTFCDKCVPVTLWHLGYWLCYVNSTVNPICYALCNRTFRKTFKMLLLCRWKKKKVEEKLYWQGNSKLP
The description is as above. To be noted: M5 muscarinic receptor subtype, CHO cell membranes, [3H]-NMS 1 nM. The protocol:
as §1, §2

The structures appear in SMILES notation.

Turning to `Cc1cc(NC(=O)CCN2CCC(OC(=O)Nc3ccccc3-c3ccccc3)CC2)c(C)cc1CNC[C@H](O)c1ccc(O)c(NC=O)c1` [compound of formula I, biphenyl-2-ylcarbamic acid 1-[2-(4-{[(R)-2-(3-formylamino-4-hydroxyphenyl)-2-hydroxyethylamino]methyl}-2,5-dimethylphenylcarbamoyl)ethyl]-piperidin-4-yl ester], the Ki at hM4 muscarinic receptor and on hM5 muscarinic receptor was under 10 nM in each case.

(Values after patent US7880010B2, “Crystalline forms of a dimethylphenyl compound” (Theravance, Inc., priority 2006, dated 2011).)
